This is an account of results in US20230104936A1, “TRPML MODULATORS” (Casma Therapeutics, Inc., priority 2019, published 2023).

For the assay, the system named is TFEB. In words: TFEB nuclear translocation assay, HeLa wt cells. As to conditions: Homo sapiens, HeLa, 2 h, 2 hrs compound treatment, Table 1 does not say HeLa wt or TRPML1 KO. In kind it is cell-based. A digest of the protocol:
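HeLa wt or TRPML1 KO cells treated 2 hrs with compounds at 37° C, fixed in 4% PFA, immunostained with anti-TFEB plus Alexa 488 secondary and Hoechst. Imaged at ×20, four fields/well; read-out is nuclear/perinuclear-ring TFEB intensity ratio, reported as AC50.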

`CN1CC2(CCN(c3ccccc3NS(=O)(=O)c3ccc(S(=O)(=O)N(C)C)cc3)CC2)c2ncccc21` [Compound A-271, N1,N1-dimethyl-N4-(2-{1′-methyl-1′,2′-dihydrospiro[piperidine-4,3′-pyrrolo(3,2-b]pyridin]-1-yl}phenyl)benzene-1,4-disulfonamide] registered an AC50 of no more than 2 µM.
With `COCC1(C)CCN(c2ccccc2NS(=O)(=O)c2ccc(OC)cc2)CC1` [Compound A-538, 4-methoxy-N-{2-[4-(methoxymethyl)-4-methylpiperidin-1-yl]phenyl}benzene-1-sulfonamide] the figure was no more than 2 µM; with `CS(=O)(=O)c1ccc(S(=O)(=O)Nc2ccc(F)cc2N2CCC(c3c(F)cccc3F)CC2)cc1` [Compound A-155, N-{2-[4-(2,6-difluorophenyl)piperidin-1-yl]-4-fluorophenyl}-4-methanesulfonylbenzene-1-sulfonamide], 2.01 to 8 µM.
In the case of `CN(C)S(=O)(=O)c1ccc(S(=O)(=O)Nc2ccccc2N2CCC(C3COCCO3)CC2)cc1` (centres unmarked) [Compound A-437, N4-{2-[4-(1,4-dioxan-2-yl)piperidin-1-yl]phenyl}-N1,N1-dimethylbenzene-1,4-disulfonamide], the AC50 lay in the range of 2.01 to 8 µM.
As for `O=S(=O)(Nc1ccccc1N1CCC(c2ccc(Cl)cc2F)CC1)c1ccc(F)cc1F` [Compound A-87, N-{2-[4-(4-chloro-2-fluorophenyl)piperidin-1-yl]phenyl}-2,4-difluorobenzene-1-sulfonamide], the AC50 was no less than 10 µM.
With `O=S(=O)(Nc1cc(Cl)ccc1N1CCCC2(CCCOC2)C1)c1ccc2c(c1)CCC2` (centres unmarked) [Compound A-347, N-(5-chloro-2-{2-oxa-8-azaspiro[5.5]undecan-8-yl}phenyl)-2,3-dihydro-1H-indene-5-sulfonamide] the figure was no more than 2 µM; with `O=S(=O)(Nc1cc(Cl)ccc1N1CCC(c2ccc(Cl)cc2F)CC1)c1ccc2c(c1)CCC2` [Compound A-313, N-{5-chloro-2-[4-(4-chloro-2-fluorophenyl)piperidin-1-yl]phenyl}-2,3-dihydro-1H-indene-5-sulfonamide], no more than 2 µM.
The molecule `CNC1(c2ccc(Cl)cc2F)CCN(c2ccccc2NS(=O)(=O)c2ccc(S(=O)(=O)N(C)C)cc2)CC1` [Compound A-212, N4-{2-[4-(4-chloro-2-fluorophenyl)-4-(methylamino)piperidin-1-yl]phenyl}-N1,N1-dimethylbenzene-1,4-disulfonamide] showed an AC50 of no more than 2 µM.
For `COc1ccc(S(=O)(=O)Nc2ccccc2N2CCC(N(C)c3ccc(F)cc3F)CC2)cc1` [Compound A-189, N-(2-{4-[(2,4-difluorophenyl)(methyl)amino]piperidin-1-yl}phenyl)-4-methoxybenzene-1-sulfonamide], the AC50 was no more than 2 µM.
For `Cc1ccc(CS(=O)(=O)Nc2ccccc2N2CCC3(CC2)COC(C)(C)C3)cc1` [Compound A-711, N-(2-{3,3-dimethyl-2-oxa-8-azaspiro[4.5]decan-8-yl}phenyl)-1-(4-methylphenyl)methanesulfonamide] the value was no more than 2 µM; for `CN(C)S(=O)(=O)c1ccc(S(=O)(=O)N2CCC(N3CCC(c4ccc(Cl)cc4F)CC3)C2=O)cc1` (centres unmarked) [Compound A-71, 4-((3-(4-(4-chloro-2-fluorophenyl)piperidin-1-yl)-2-oxopyrrolidin-1-yl)sulfonyl)-N,N-dimethylbenzenesulfonamide], no less than 10 µM.
With `CC(C)(C)S(=O)(=O)c1ccc(S(=O)(=O)Nc2cc(Cl)ccc2N2CCOCC2)cc1` [Compound A-276, N-[5-chloro-2-(morpholin-4-yl)phenyl]-4-(2-methylpropane-2-sulfonyl)benzene-1-sulfonamide], the AC50 was no less than 10 µM.
As for `CN(C)S(=O)(=O)c1ccc(S(=O)(=O)Nc2nc(C3CCN(c4ccc(Cl)cc4F)CC3)cn2C)cc1` [Compound A-84, N4-{4-[1-(4-chloro-2-fluorophenyl)piperidin-4-yl]-1-methyl-1H-imidazol-2-yl}-N1,N1-dimethylbenzene-1,4-disulfonamide], the AC50 was no less than 10 µM.
In turn, `CC(c1cc(Cl)cnc1N1CCC(CN2CCC(F)(F)CC2)CC1)S(=O)(=O)c1ccc(S(=O)(=O)N(C)C)cc1` (single isomer, unassigned) [Compound A-978, 4-((1-(5-chloro-2-(4-((4,4-difluoropiperidin-1-yl)methyl)piperidin-1-yl)pyridin-3-yl)ethyl)sulfonyl)-N,N-dimethylbenzenesulfonamide] had an AC50 of no more than 2 µM.
`CC(c1cccc(F)c1N1CCCCC1)S(=O)(=O)c1ccc(S(=O)(=O)N(C)C)nn1` (centres unmarked) [Compound A-941, 6-{1-[3-fluoro-2-(piperidin-1-yl)phenyl]ethanesulfonyl}-N,N-dimethylpyridazine-3-sulfonamide] gave an AC50 of 2.01 to 8 µM.
In turn, `COc1ccc(S(=O)(=O)Nc2ccccc2Oc2ccc(F)cc2F)cc1` [Compound A-186, N-(2-(2,4-difluorophenoxy)phenyl)-4-methoxybenzenesulfonamide] returned an AC50 of no less than 10 µM.
Consider `COc1ccc(S(=O)(=O)Nc2ccccc2N2CCC(c3ccc(Cl)cc3F)CC2)cc1` [Compound A-99, N-{2-[4-(4-chloro-2-fluorophenyl)piperidin-1-yl]phenyl}-4-methoxybenzene-1-sulfonamide], for which the AC50 was no more than 2 µM.
